From patent US20220041588A1, “SUBSTITUTED IMIDAZO[1,2-A]PYRIDINE AND [1,2,4]TRIAZOLO[1,5-A]PYRIDINE COMPOUNDS AS RET KINASE INHIBITORS” (FOCHON PHARMACEUTICALS, LTD., priority 2018, published 2022)

Tested on: TT (RET C634W) cells
Assay: Cell proliferation assay (MTS), TT cells
Type: cell-based
Conditions: Homo sapiens, TT, 72 h, 72 h incubation, MTS readout
Description: MTS testing kit was purchased from Promega. The RPMI-1640, F12, F12K, Fetal bovine serum and Penicillin-Streptomycin were purchased from BI. Glutamine and Dimethyl sulfoxide (DMSO) were purchased from Sigma. TT cells were cultured in F12K supplemented with 10% FBS and LC-2/ad cells were cultured in HamF12: RPMI1640 (1:1) supplemented with 10% FBS and 2 mM Glutamine.
To investigate whether a compound is able to inhibit the activity of RET fusion and/or mutation in cells, a mechanism-based assay using TT (RET C634W) and LC-2/ad (CCDCl6-RET) cell lines was developed. In this assay, the inhibition of RET fusion and/or mutation was reflected by the inhibition of cell proliferation of TT and LC-2/ad cells. Cells were plated into 96-well plates at the optimized cell density (TT: 5000 cells/well; LC-2/ad: 5000 cells/well). Plates were incubated at 37° C., with 5% CO2 for 24 h. Compounds were serially diluted and added to the plates with the final concentrations as 10000, 3333.3, 1111.1, […], 123.5, 41.2, 13.7, 4.6 and 1.5 nM. Plates were incubated at 37° C., with 5% CO2 for 72 h. An aliquot of 20 μL MTS/100 μL medium mixture solution were added to each well and the plates were incubated for exactly 2 h. The reaction was stopped by adding 25 μL 10% SDS to each well. The absorbance was measured by a microplate reader at 490 nm and 650 nm (reference wavelength). IC50 was calculated using GraphPad Prism 5.0.

Compound | IC50 [nM]
Cc1ccc(CC(=O)N2CCN(c3ccc(-c4cc(-c5cnn(C)c5)cc5ncc(C#N)n45)cn3)CC2)nc1 [Example 47, 7-(1-methyl-1H-pyrazol-4-yl)-5-(6-(4-(2-(5-methylpyridin-2-yl)acetyl)pi-perazin-1-yl)pyridin-3-yl)imidazo[1,2-a]pyridine-3-carbonitrile] | 88
COc1ccc(CN2C3CC2CN(c2ccc(-c4cc(OCCN=S(C)(C)=O)cc5ncc(C#N)n45)cn2)C3)cn1 [Example 58, 7-(2-((Dimethyl(oxo)-λ^6-sulfanylidene)amino)ethoxy)-5-(6-(6-((6-methoxypyridin-3-yl)methyl)-3,6-diazabicyclo[3.1.1]heptan-3-yl)pyridin-3-yl)imidazo[1,2-a]pyridine-3-carbonitrile] | 120
[2H]C([2H])([2H])Oc1ccc(OC2CCN(c3ccc(-c4cc(OCC(C)(C)O)cc5ncc(C#N)n45)cn3)CC2)cn1 [Example 61, 7-(2-Hydroxy-2-methylpropoxy)-5-(6-(4-((6-(methoxy-d3)pyridin-3-yl)oxy)piperidin-1-yl)pyridin-3-yl)imidazo[1,2-a]pyridine-3-carbonitrile] | 15
COc1ccc(OC2CCN(c3ccc(-c4cc(OCCN=S(C)(C)=O)cc5ncc(C#N)n45)cn3)CC2)cn1 [Example 70, 7-(2-((dimethyl(oxo)-λ^6-sulfanylidene)ami-no)ethoxy)-5-(6-(4-((6-methoxypyridin-3-yl)oxy)piperidin-1-yl)pyridin-3-yl)imid-azo[1,2-a]pyridine-3-carbonitrile] | 71
Cc1ccc(OC2CCN(c3ccc(-c4cc(OCC(C)(C)O)cc5ncc(C#N)n45)cn3)CC2)cn1 [Example 71, 7-(2-hydroxy-2-methylpropoxy)-5-(6-(4-((6-methylpyridin-3-yl)oxy)piperidin-1-yl)pyridin-3-yl)imidazo[1,2-a]pyridine-3-carbonitrile] | 22
CC(C)(O)COc1cc(-c2ccc(N3CCC(Oc4ccc(C5CC5)nc4)CC3)nc2)n2c(C#N)cnc2c1 [Example 72, 5-(6-(4-((6-cyclopropylpyridin-3-yl)oxy)piperidin-1-yl)pyridin-3-yl)-7-(2-hydroxy-2-methylpropoxy)imidazo[1,2-a]pyridine-3-carbonitrile] | 17
CCc1ccc(OC2CCN(c3ccc(-c4cc(OCC(C)(C)O)cc5ncc(C#N)n45)cn3)CC2)cn1 [Example 73, 5-(6-(4-((6-ethylpyridin-3-yl)oxy)piperidin-1-yl)pyridin-3-yl)-7-(2-hydroxy-2-meth-ylpropoxy)imidazo[1,2-a]pyridine-3-car-bonitrile] | 1
Cc1ccc(OC2CCN(c3ccc(-c4cc(OCC5(O)CC5)cc5ncc(C#N)n45)cn3)CC2)cn1 [Example 74, 7-((1-hydroxycyclopropyl)methoxy)-5-(6-(4-((6-methylpyridin-3-yl)oxy)piperidin-1-yl)pyridin-3-yl)imidazo[1,2-a]pyridine-3-carbonitrile] | 23
CCc1ccc(OC2CCN(c3ccc(-c4cc(OCC5(O)CC5)cc5ncc(C#N)n45)cn3)CC2)cn1 [Example 75, 5-(6-(4-((6-ethylpyridin-3-yl)oxy)piperidin-1-yl)pyridin-3-yl)-7-((1-hydroxycyclo-propyl)methoxy)imidazo[1,2-a]pyridine-3-carbonitrile] | 1
N#Cc1cnc2cc(OCC3(O)CC3)cc(-c3ccc(N4CCC(Oc5ccc(C6CC6)nc5)CC4)nc3)n12 [Example 76, 5-(6-(4-((6-cyclopropylpyridin-3-yl)oxy)piperidin-1-yl)pyridin-3-yl)-7-((1-hydroxy-cyclopropyl)methoxy)imidazo[1,2-a]pyr-idine-3-carbonitrile] | 5
CC(C)(O)COc1cc(-c2ccc(N3CCC(Oc4ccc(C(F)F)nc4)CC3)nc2)n2c(C#N)cnc2c1 [Example 77, 5-(6-(4-((6-(difluoromethyl)pyridin-3-yl)oxy)piperidin-1-yl)pyridin-3-yl)-7-(2-hy-droxy-2-methylpropoxy)imidazo[1,2-a]pyr-idine-3-carbonitrile] | 48
N#Cc1cnc2cc(OCC3(O)CC3)cc(-c3ccc(N4CCC(Oc5ccc(C(F)F)nc5)CC4)nc3)n12 [Example 78, 5-(6-(4-((6-(difluoromethyl)pyridin-3-yl)oxy)piperidin-1-yl)pyridin-3-yl)-7-((1-hy-droxycyclopropyl)methoxy)imidazo[1,2-a]pyridine-3-carbonitrile] | 13
CCOc1ccc(OC2CCN(c3ccc(-c4cc(OCC5(O)CC5)cc5ncc(C#N)n45)cn3)CC2)cn1 [Example 79, 5-(6-(4-((6-ethoxypyridin-3-yl)oxy)piperi-din-1-yl)pyridin-3-yl)-7-((1-hydroxycyclo-propyl)methoxy)imidazo[1,2-a]pyridine-3-carbonitrile] | 1
C#Cc1ccc(OC2CCN(c3ccc(-c4cc(OCC(C)(C)O)cc5ncc(C#N)n45)cn3)CC2)cn1 [Example 80, 5-(6-(4-((6-ethynylpyridin-3-yl)oxy)piper-idin-1-yl)pyridin-3-yl)-7-(2-hydroxy-2-methylpropoxy)imidazo[1,2-a]pyridine-3-carbonitrile] | 7
C#Cc1ccc(OC2CCN(c3ccc(-c4cc(OCC5(O)CC5)cc5ncc(C#N)n45)cn3)CC2)cn1 [Example 81, 5-(6-(4-((6-ethynylpyridin-3-yl)oxy)piper-idin-1-yl)pyridin-3-yl)-7-((1-hydroxycyclo-propyl)methoxy)imidazo-[1,2-a]pyridine-3-carbonitrile] | 5
C=Cc1ccc(OC2CCN(c3ccc(-c4cc(OCC(C)(C)O)cc5ncc(C#N)n45)cn3)CC2)cn1 [Example 82, 7-(2-hydroxy-2-methylpropoxy)-5-(6-(4-((6-vinylpyridin-3-yl)oxy)piperidin-1-yl)pyridin-3-yl)imidazo[1,2-a]pyridine-3-car-bonitrile] | 15
C=Cc1ccc(OC2CCN(c3ccc(-c4cc(OCC5(O)CC5)cc5ncc(C#N)n45)cn3)CC2)cn1 [Example 83, 7-((1-hydroxycyclopropyl)methoxy)-5-(6-(4-((6-vinylpyridin-3-yl)oxy)piperidin-1-yl)pyridin-3-yl)imidazo[1,2-a]pyridine-3-carbonitrile] | 17
CC(C)(O)COc1cc(-c2ccc(N3CCC(Oc4ccc(OC5CC5)nc4)CC3)nc2)n2c(C#N)cnc2c1 [Example 84, 5-(6-(4-((6-cyclopropoxypyridin-3-yl)oxy)piperidin-1-yl)pyridin-3-yl)-7-(2-hydroxy-2-methylpropoxy)imidazo[1,2-a]pyri-dine-3-carbonitrile] | 21
N#Cc1cnc2cc(OCC3(O)CC3)cc(-c3ccc(N4CCC(Oc5ccc(OC6CC6)nc5)CC4)nc3)n12 [Example 85, 5-(6-(4-((6-cyclopropoxypyridin-3-yl)oxy)piperidin-1-yl)pyridin-3-yl)-7-((1-hy-droxycyclopropyl)methoxy)imidazo[1,2-a] pyridine-3-carbonitrile] | 12
COc1ncc(OC2CCN(c3ccc(-c4cc(OCC5(O)CC5)cc5ncc(C#N)n45)cn3)CC2)cc1F [Example 87, 5-(6-(4-((5-fluoro-6-methoxypyridin-3-yl)oxy)piperidin-1-yl)pyridin-3-yl)-7-((1-hydroxycyclopropyl)methoxy)imidazo[1,2-a]pyridine-3-carbonitrile] | 38
CCOc1ccc(OC2CCN(c3ccc(-c4cc(OCC(C)(C)O)cc5ncc(C#N)n45)cn3)CC2)cn1 [Example 88, 5-(6-(4-((6-ethoxypyridin-3-yl)oxy)piperi-din-1-yl)pyridin-3-yl)-7-(2-hydroxy-2-meth-ylpropoxy)imidazo[1,2-a]pyridine-3-car-bonitrile] | 2
COc1ccc(O[C@H]2CCN(c3ccc(-c4cc(OCC(C)(C)O)cc5ncc(C#N)n45)cn3)C2)cn1 [Example 89, (S)-7-(2-hydroxy-2-methylpropoxy)-5-(6-(3-((6-methoxypyridin-3-yl)oxy)pyrrolidin-1-yl)pyridin-3-yl)imidazo[1,2-a]pyridine-3-carbonitrile] | 45
COc1ccc(O[C@H]2CCN(c3ccc(-c4cc(OCC5(O)CC5)cc5ncc(C#N)n45)cn3)C2)cn1 [Example 90, (S)-7-((1-hydroxycyclopropyl)methoxy)-5-(6-(3-((6-methoxypyridin-3-yl)oxy)pyr-rolidin-1-yl)pyridin-3-yl)imidazo[1,2-a] pyridine-3-carbonitrile] | 13
COc1ccc(OC2CN(c3ccc(-c4cc(OCC5(O)CC5)cc5ncc(C#N)n45)cn3)C2)cn1 [Example 92, 7-((1-hydroxycyclopropyl)methoxy)-5-(6-(3-((6-methoxypyridin-3-yl)oxy)azetidin-1-yl)pyridin-3-yl)imidazo[1,2-a]pyridine-3-carbonitrile] | 87
COc1ccc(OC2CN(c3ccc(-c4cc(OCC(C)(C)O)cc5ncc(C#N)n45)cn3)C2)cn1 [Example 93, 7-(2-hydroxy-2-methylpropoxy)-5-(6-(3-((6-methoxypyridin-3-yl)oxy)azetidin-1-yl)pyridin-3-yl)imidazo[1,2-a]pyridine-3-carbonitrile] | 39
